{"source": "patent US20240050452A1", "about": "“USE OF C[…] THE TREATMENT OF SEIZURES ASSOCIATED WITH EPILEPSY SYNDROMES IN PATIENTS TAKING BRIVARACETAM” (GW Research Limited, priority 2020, published 2024)", "origin": "cited, not measured here", "system": "seizure frequencies", "conditions": "increasing CBD dose combined with a constant BRV dose; seizure types not disclosed"}
{"smiles": "C=C(C)[C@@H]1CCC(C)=C[C@H]1c1c(O)cc(CCCCC)cc1O", "note": "[CBD, cannabidiol]", "values": [{"measurement": "effect on seizure frequencies", "value": "reductions in seizure frequencies"}]}
